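48-hour exposure; five concentrations; linearly interpolated endpoints. GI50 marks 50% less growth.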 Active and inactive are the calls of the source. Cut-off read from the data, not from the text of the source: active = GI50 up to about 1.1 µM and inactive = higher.
What was measured:
Experiment in all cases: DTP human tumour cell line panel, 48 h
[1] = test system: SF-268
[2] = test system: KM12
[3] = test system: SN12C
[4] = test system: TK-10
[5] = test system: SK-MEL-5
[6] = test system: HOP-62
[7] = test system: NCI-H226
[8] = test system: M14
[9] = test system: RPMI-8226
[10] = test system: UACC-257
[11] = test system: CAKI-1
[12] = test system: EKVX
[13] = test system: HCT-15
[14] = test system: K562
[15] = test system: RXF 393
[16] = test system: SK-MEL-28
[17] = test system: MDA-MB-231
[18] = test system: BT-549
[19] = test system: NCI-H522
[20] = test system: COLO 205

| SMILES | GI50 [1] | GI50 [2] | GI50 [3] | GI50 [4] | GI50 [5] | GI50 [6] | GI50 [7] | GI50 [8] | GI50 [9] | GI50 [10] | GI50 [11] | GI50 [12] | GI50 [13] | GI50 [14] | GI50 [15] | GI50 [16] | GI50 [17] | GI50 [18] | GI50 [19] | GI50 [20] |
| --- | --- | --- | --- | --- | --- | --- | --- | --- | --- | --- | --- | --- | --- | --- | --- | --- | --- | --- | --- | --- |
| O=c1[nH]c2nc(S)nc(S)c2[nH]1 | > 100 µM (inactive) | > 100 µM (inactive) | > 100 µM (inactive) | > 100 µM (inactive) | > 100 µM (inactive) | > 100 µM (inactive) | > 100 µM (inactive) | > 100 µM (inactive) | > 100 µM (inactive) | > 100 µM (inactive) | > 100 µM (inactive) | > 100 µM (inactive) | > 100 µM | > 100 µM (inactive) | > 100 µM (inactive) | > 100 µM (inactive) | > 100 µM (inactive) | > 100 µM (inactive) | > 100 µM (inactive) | – |
| Cc1c(NC(=O)Nc2c(Cl)cccc2Cl)c(=O)n(-c2ccccc2)n1C | > 100 µM (inactive) | > 100 µM (inactive) | > 100 µM (inactive) | > 100 µM (inactive) | > 100 µM (inactive) | > 100 µM (inactive) | > 100 µM (inactive) | > 100 µM (inactive) | > 100 µM (inactive) | > 100 µM (inactive) | > 100 µM (inactive) | > 100 µM (inactive) | > 100 µM | > 100 µM (inactive) | > 100 µM (inactive) | > 100 µM (inactive) | > 100 µM (inactive) | > 100 µM (inactive) | > 100 µM (inactive) | > 100 µM (inactive) |
| O=C(CC(=O)Nc1ccccc1Cl)NNC(c1cc(/N=N/c2ccc(Br)cc2)ccc1O)P(O)O (stereo unspecified) | 0.679 µM (active) | 2.95 µM (inactive) | 1.6 µM (inactive) | 1.61 µM (inactive) | 1.19 µM (inactive) | 3.88 µM (inactive) | 1.22 µM (inactive) | 0.61 µM (active) | 2.84 µM (inactive) | 3.2 µM (inactive) | 1.36 µM (inactive) | 4.22 µM (inactive) | 0.594 µM | 2.4 µM (inactive) | 1.34 µM (inactive) | 7.43 µM (inactive) | 3.06 µM (inactive) | 2.33 µM (inactive) | 2.97 µM (inactive) | 3.89 µM (inactive) |
| CCc1nc(Cl)nc(Cl)c1Cl | 0.54 µM (active) | 3.48 µM (inactive) | 2.22 µM (inactive) | 6.93 µM (inactive) | 2.56 µM (inactive) | 8.05 µM (inactive) | 6.5 µM (inactive) | 1.28 µM (inactive) | 0.0116 µM (active) | 0.547 µM (active) | 0.193 µM (active) | 11.4 µM (inactive) | 0.318 µM | 0.107 µM (active) | 1.74 µM (inactive) | 4.95 µM (inactive) | 1.63 µM (inactive) | 2.01 µM (inactive) | 0.0494 µM (active) | 0.284 µM (active) |
| COc1cc(I)c2c3c1OC1C34CCN(C)C(C2)C4=CC(I)C1(OC)OC (stereo unspecified) | 25.6 µM (inactive) | 17.5 µM (inactive) | 16.3 µM (inactive) | 21.3 µM (inactive) | 17.1 µM (inactive) | 19.1 µM (inactive) | 22.6 µM (inactive) | 37.4 µM (inactive) | 19.6 µM (inactive) | 19.3 µM (inactive) | 22.4 µM (inactive) | 29.6 µM (inactive) | 25.5 µM | 20.7 µM (inactive) | 16.3 µM (inactive) | 18.2 µM (inactive) | 20.1 µM (inactive) | 23.9 µM (inactive) | 21.2 µM (inactive) | 19.4 µM (inactive) |
| O=C(O)c1cc2c(cc1CC(Cc1ccc3c(c1)CCC3)C(=O)O)CCC2 (stereo unspecified) | > 100 µM (inactive) | > 100 µM (inactive) | > 100 µM (inactive) | > 100 µM (inactive) | > 100 µM (inactive) | > 100 µM (inactive) | > 100 µM (inactive) | > 100 µM (inactive) | > 100 µM (inactive) | > 100 µM (inactive) | > 100 µM (inactive) | > 100 µM (inactive) | > 100 µM | – | > 100 µM (inactive) | > 100 µM (inactive) | > 100 µM (inactive) | > 100 µM (inactive) | > 100 µM (inactive) | > 100 µM (inactive) |
| C=CCN1C(N)=C(C#N)C(C#N)(C#N)C1CCC (stereo unspecified) | > 100 µM (inactive) | > 100 µM (inactive) | > 100 µM (inactive) | > 100 µM (inactive) | 81.7 µM (inactive) | > 100 µM (inactive) | > 100 µM (inactive) | > 100 µM (inactive) | > 100 µM (inactive) | > 100 µM (inactive) | > 100 µM (inactive) | 47.4 µM (inactive) | > 100 µM | > 100 µM (inactive) | > 100 µM (inactive) | – | > 100 µM (inactive) | > 100 µM (inactive) | > 100 µM (inactive) | > 100 µM (inactive) |
| O=C1c2cc(Cl)ccc2-n2c(noc2=O)C2CSCN12 (stereo unspecified) | > 100 µM (inactive) | > 100 µM (inactive) | > 100 µM (inactive) | > 100 µM (inactive) | > 100 µM (inactive) | > 100 µM (inactive) | > 100 µM (inactive) | > 100 µM (inactive) | > 100 µM (inactive) | > 100 µM (inactive) | > 100 µM (inactive) | > 100 µM (inactive) | > 100 µM | 55.7 µM (inactive) | > 100 µM (inactive) | > 100 µM (inactive) | > 100 µM (inactive) | > 100 µM (inactive) | > 100 µM (inactive) | > 100 µM (inactive) |
| O=P1(N(CCCl)CCCl)Oc2ccc(Cl)cc2C(C(Cl)(Cl)Cl)c2cc(Cl)ccc2O1 (stereo unspecified) | 28.2 µM (inactive) | 13.1 µM (inactive) | 16.6 µM (inactive) | 26.2 µM (inactive) | 11.4 µM (inactive) | 11.8 µM (inactive) | 17.8 µM (inactive) | 18.8 µM (inactive) | 3.77 µM (inactive) | 18 µM (inactive) | 16.5 µM (inactive) | 18.6 µM (inactive) | 9.57 µM | 3.72 µM (inactive) | 12.7 µM (inactive) | 35.2 µM (inactive) | 18.6 µM (inactive) | 29.8 µM (inactive) | 8.59 µM (inactive) | 12.9 µM (inactive) |
| O=C(CCl)N1CCCCC1C1(c2cc3ccccc3[nH]2)OCCO1 (stereo unspecified) | 3.22 µM (inactive) | 1.77 µM (inactive) | 2.25 µM (inactive) | 3.5 µM (inactive) | 3.08 µM (inactive) | 3.12 µM (inactive) | 6.53 µM (inactive) | 3.99 µM (inactive) | 2.12 µM (inactive) | 4.7 µM (inactive) | 0.828 µM (active) | 1.5 µM (inactive) | 4.82 µM | 1.93 µM (inactive) | 3.8 µM (inactive) | 11.6 µM (inactive) | 2.69 µM (inactive) | 2.05 µM (inactive) | 0.194 µM (active) | 2.94 µM (inactive) |
| O=c1c(Sc2ncccn2)c(Sc2ncccn2)cnn1CCl | 2.99 µM (inactive) | 14.7 µM (inactive) | 3.79 µM (inactive) | 0.398 µM (active) | 6.87 µM (inactive) | 1.49 µM (inactive) | 28.1 µM (inactive) | 2.12 µM (inactive) | 1.67 µM (inactive) | 2.17 µM (inactive) | 1.98 µM (inactive) | 2.9 µM (inactive) | 3.02 µM | 3.39 µM (inactive) | 1.5 µM (inactive) | 3.41 µM (inactive) | 6.98 µM (inactive) | 10.2 µM (inactive) | 0.665 µM (active) | 1.76 µM (inactive) |
| CCN(CC)CCO/N=C1\CC[C@H]2[C@@H]3CCc4cc(OC)ccc4[C@H]3CC[C@]12C | 2.07 µM (inactive) | 2.01 µM (inactive) | 3.03 µM (inactive) | 6.44 µM (inactive) | 1.73 µM (inactive) | 1.77 µM (inactive) | 1.88 µM (inactive) | 0.467 µM (active) | 1.67 µM (inactive) | 0.859 µM (active) | 0.74 µM (active) | 3.16 µM (inactive) | 0.489 µM | 0.685 µM (active) | 1.6 µM (inactive) | 0.628 µM (active) | 3.37 µM (inactive) | 4.56 µM (inactive) | 2.52 µM (inactive) | 1.57 µM (inactive) |
| Cc1nc(C)c(C(=O)NNC(=O)Cc2ccccc2)cc1C(=O)NNC(=O)Cc1ccccc1 | > 100 µM (inactive) | > 100 µM (inactive) | > 100 µM (inactive) | > 100 µM (inactive) | > 100 µM (inactive) | > 100 µM (inactive) | > 100 µM (inactive) | > 100 µM (inactive) | > 100 µM (inactive) | > 100 µM (inactive) | > 100 µM (inactive) | > 100 µM (inactive) | > 100 µM | > 100 µM (inactive) | > 100 µM (inactive) | – | > 100 µM (inactive) | > 100 µM (inactive) | > 100 µM (inactive) | > 100 µM (inactive) |
| COc1ccc2cc(C(C)C(=O)N3CCOC3=O)ccc2c1 (stereo unspecified) | > 100 µM (inactive) | > 100 µM (inactive) | > 100 µM (inactive) | > 100 µM (inactive) | > 100 µM (inactive) | > 100 µM (inactive) | > 100 µM (inactive) | > 100 µM (inactive) | > 100 µM (inactive) | > 100 µM (inactive) | > 100 µM (inactive) | > 100 µM (inactive) | > 100 µM | > 100 µM (inactive) | > 100 µM (inactive) | > 100 µM (inactive) | > 100 µM (inactive) | > 100 µM (inactive) | > 100 µM (inactive) | > 100 µM (inactive) |

— ChEMBL document CHEMBL1201862, “PubChem BioAssay data set” (2004)
